According to patent US20100047841A1, “SYNTHESIS OF DESACETOXYTUBULYSIN H AND ANALOGS THEREOF” (University of Pittsburgh-of the Commonwealth System of …, priority 2007, published 2010):
Counter-ions that a name gives are not always drawn. Like-named read-outs stand apart in the source and are kept apart here.

Key:
[1] = system: T98G human glioblastoma cell line; test: Antiproliferative assay (MTS), GI50 in T98G cells; assay type: cell-based; settings: for GI50: Homo sapiens, T98G
Description: General methods are known for determining the effect of compounds on proliferation of cells. See, e.g., Zhu et al., J. Med. Chem., 2006, 49, 2063-2076. Cells can be selected by one of skill in the art and can be maintained as exponentially growing cultures in a suitable medium (e.g., RPMI 1640 medium) with adjuvents, including FBS, penicillin, and glutamine, provided at levels known to those skilled in this field. For human cancer cells, e.g., human glioblastoma cell line T98G, the cells can be trypsinized and washed prior to formation of a cell suspension in appropriate buffer and plating of the cell suspension. Typical microtiter plate amounts can be 500-2000 cells/well. The cells can be allowed to attach and grow for a defined time period (e.g., 36 hours, 72 hours, 96 hours, or other defined period) before treatment with either vehicle (e.g., dimethylsulfoxide) or test agent (e.g., compound of the invention) followed by an additional defined time period (e.g., 36 hrs, 72 hrs, 96 hrs, and the like). At the end of the additional defined time period, viability of the cells can be determined by any of a variety of methods known in the art, including assays employing MTS (3-(4,5-dimethylthiazol-2-yl)-5-(3-carboxymethoxyphenyl)-2-(4-sulfophenyl)-2H-tetrazolium), as described by -Cory et al., Cancer Commun., 1991, 3, 207-212. […] Replicates are typically assayed to allow determination of appropriate statistical properties as known in the art.
Compounds of the invention with structures of Formulae Xa, XVb, and XVa were assayed for inhibition of growth of the T98G human glioblastoma cell line (Table II).
Human glioblastoma T98G cells (American Type Culture Collection, Manassas, Va.) were maintained as exponentially growing cultures in an RPMI 1640 medium with 10% FBS, 1% penicillin and 1% glutamine. The cells were seeded into 96-well plates and allowed to attach and grow for 48 hours. One plate of cells was used for a time zero cell number determination (N=16), and cells in other plates were treated for 72 hours or 96 hours with either DMSO (1% v/v; N=8 for each plate) or a range of concentrations, in quadruplicate, of test agents. Cell number was determined spectrophotometrically at 490 nm minus absorbance at 630 nm after exposure to 3-(4,5-dimethylthiazol-2-yl)-5-(3-carboxymethoxyphenyl)-2-(4-sulfophenyl)-2H-tetrazolium (MTS) and N-methylphenazine methylsulfate. The fifty percent growth inhibitory concentrations (GI50) of test agents were calculated from the spectrophotometrically determined growth of the control cells over the 72- or 96-hour period.

[2] = system: bovine brain tubulin (peptide/depsipeptide site); test: Inhibition of [3H]dolastatin 10 binding to tubulin (centrifugal gel filtration); settings: 10 μM radiotracer, 10 μM tubulin; for % Inhibition of [3H]dolastatin 10 binding by 5 μM test agent: 30 min room temperature; for IC50: test agent 0.5-100 μM, Hill fit
Procedure: The new compounds were tested for their abilities to bind at the vinca domain and at the related peptide/depsipeptide site on tubulin using a modification of a centrifugal gel filtration method described by Bai et al., Mol. Pharmacol. 7: 965-76 (1995). In the initial screens, each 0.32 mL reaction mixture contained 5 μM test agent and 10 μM [^3H]vinblastine (specific activity 8.50 Ci/mmol; GE Healthcare Bio-Sciences, Picataway, N.J.) or 10 μM [^3H]dolastatin 10 (specific activity 1.96 Ci/mmol; obtained from the Drug Synthesis and Chemistry Branch of the National Cancer Institute) predissolved in DMSO (final concentration 1% v/v) and 10 μM bovine brain tubulin, all in 0.1 M 2-(4-morpholino)ethanesulfonic acid (Mes), pH 6.9, containing 0.5 mM MgCl2. The mixture was incubated for 30 min at room temperature. Two 0.15 mL aliquots of the reaction mixture were applied to duplicate 2 mL beds of pre-swollen (in Mes, pH 6.9, containing 0.5 mM MgCl2) Sephadex G-50 (superfine) contained in Handee columns (Pierce Biotechnology, Rockford, Ill.). The columns were centrifuged at 800×g for 4 minutes and the protein concentration in the effluent was determined, using the bicinchoninic acid assay. The amount of radiolabeled ligand bound to tubulin was determined using scintillation spectrometry. Each value represents the mean ±SD of four determinations. […] Inhibition was calculated as the percent difference relative to that of the control incubation with DMSO (i.e., without test agent—assigned as 0% inhibition). […] GraphPad Prism was used to fit the resulting data to the Hill equation to determine the IC50 values.

[3] = 72 h, read-out: GI50 at (72 h) in T98 glioblastoma cells
[4] = 72 h, read-out: GI50 in T98G cell, 72 h
[5] = 96 h, read-out: GI50 at 96 h in T98 glioblastoma cells
[6] = 96 h, read-out: GI50 in T98G cell, 96 h

Structure (SMILES)	loss in antiproliferative GI50 compared to dolastatin 10 and tubulysins A or D [1]	GI50 ([1]; 72 h) [nM]	GI50 [1, 3] [nM]	GI50 [1, 4] [nM]	GI50 ([1]; 96 h) [nM]	GI50 [1, 5] [nM]	GI50 [1, 6] [nM]	% Inhibition of [3H]dolastatin 10 binding by 5 μM test agent [2] [%]	IC50 [2] [nM]
CCC(C)[C@H](NC(=O)[C@H]1CCCCN1C)C(=O)N(C)[C@H](C[C@@H](OC(C)=O)c1nc(C(=O)N[C@@H](Cc2ccccc2)C[C@H](C)C(=O)O)cs1)C(C)C (stereo partly drawn) [WZY-III-63C, N^14-Desacetoxytubulysin H trifluoroacetic acid salt]	1-2 orders of magnitude	430 to 4400	4.4	4.4 ± 11	350 to 16000	1.6 ± 0.8	1.6 ± 0.8	31 ± 3	10000 ± 1000
CCC(C)[C@H](NC(=O)CN(C)C)C(=O)N(C)[C@H](C[C@H](OC(C)=O)c1nc(C(=O)N[C@@H](Cc2ccccc2)C[C@H](C)C(=O)O)cs1)C(C)C (stereo partly drawn) [WZY-III-64A, (2S,4R)-4-(2-((6S,9R,11S)-6-sec-Butyl-9-isopropyl-2,8-dimethyl-4,7,13-trioxo-12-oxa-2,5,8-triazatetradecan-11-yl)thiazole-4-carboxamido)-2-methyl-5-phenylpentanoic acid]	–	430 to 4400	590	590 ± 1000	350 to 16000	400 ± 30	400 ± 30	−11 ± 10	–
CCC(C)[C@H](NC(=O)CN(C)C)C(=O)N(C)[C@H](C[C@@H](OC(C)=O)c1nc(C(=O)N[C@@H](Cc2ccccc2)C[C@H](C)C(=O)O)cs1)C(C)C (stereo partly drawn) [WZY-III-69A, (2S,4R)-4-(2-((6S,9R,11R)-6-sec-Butyl-9-iso-propyl-2,8-dimethyl-4,7,13-trioxo-12-oxa-2,5,8-triazatetradecan-11-yl)thiazole-4-carboxamido)-2-methyl-5-phenylpentanoic acid]	–	430 to 4400	430	430 ± 130	350 to 16000	350 ± 40	350 ± 40	4 ± 3	64000 ± 9000
